Laboratory results reported in patent US9102648B1, “Bioavailable diacylhydrazine ligands for modulating the expression of exogenous genes via an ecdysone receptor complex” (Intrexon Corporation, priority 2003, dated 2015).
Where two headings read alike, the source gives them in different places.

Columns and labels:
[1] = biological target: T1, Bombyx mori EcR (VP16 fusion, CVBE switch construct) (Bombyx mori, UniProt P49881); assay: Z3 Assay (HEK-293 cells with CVBE and 6XEcRE LacZ, β-galactosidase reporter); settings: for Fold Induction, Z3 Assay, 3.3 uM: 3.3 uM ligand; for Fold Induction, Z3 Assay, 3.3 uM / Fold Induction, Z3 Assay, 33 uM: ligand treated / DMSO treated cells; for Z3 assay Rel Max FI: maximum fold induction at any concentration relative to that of GS-E ligand; for Fold Induction, Z3 Assay, 33 uM: 33 uM ligand; for fold induction at 3.3 µM: HEK293, read-out: Fold Induction, Z3 Assay, 3.3 uM; for fold induction at 33 µM: HEK293, read-out: Fold Induction, Z3 Assay, 33 uM
T1 sequence (P49881 86-606): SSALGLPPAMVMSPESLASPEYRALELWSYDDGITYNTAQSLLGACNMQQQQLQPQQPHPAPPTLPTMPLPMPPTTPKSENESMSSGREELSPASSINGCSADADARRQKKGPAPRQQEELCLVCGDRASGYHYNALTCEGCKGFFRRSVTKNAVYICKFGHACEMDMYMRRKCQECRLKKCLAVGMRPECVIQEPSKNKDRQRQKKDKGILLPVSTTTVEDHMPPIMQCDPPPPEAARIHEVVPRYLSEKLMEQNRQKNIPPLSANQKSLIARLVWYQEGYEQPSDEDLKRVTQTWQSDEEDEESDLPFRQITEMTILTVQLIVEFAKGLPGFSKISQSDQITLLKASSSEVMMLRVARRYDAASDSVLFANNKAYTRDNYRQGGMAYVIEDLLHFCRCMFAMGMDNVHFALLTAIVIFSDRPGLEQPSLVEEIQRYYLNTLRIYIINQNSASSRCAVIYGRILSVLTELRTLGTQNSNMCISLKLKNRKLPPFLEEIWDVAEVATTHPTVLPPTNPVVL
T1 sequence (P19793 1-462 partner): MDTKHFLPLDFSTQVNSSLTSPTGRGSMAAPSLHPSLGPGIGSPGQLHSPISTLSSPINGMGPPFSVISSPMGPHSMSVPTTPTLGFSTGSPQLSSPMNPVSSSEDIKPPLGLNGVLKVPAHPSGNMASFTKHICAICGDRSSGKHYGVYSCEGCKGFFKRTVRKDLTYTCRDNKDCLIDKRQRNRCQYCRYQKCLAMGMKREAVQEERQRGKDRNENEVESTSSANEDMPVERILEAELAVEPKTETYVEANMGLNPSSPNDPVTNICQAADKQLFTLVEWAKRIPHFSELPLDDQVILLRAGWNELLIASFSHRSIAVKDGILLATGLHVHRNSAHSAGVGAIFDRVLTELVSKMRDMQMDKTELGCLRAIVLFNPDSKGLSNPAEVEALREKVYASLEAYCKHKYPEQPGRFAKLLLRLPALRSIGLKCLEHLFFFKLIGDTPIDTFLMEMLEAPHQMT

[2] = biological target: GAL4 DBD-CfEcR(DEF)/VP16AD-MmRXRE (Choristoneura fumiferana, UniProt O77240); assay: 13B3 Assay (CHO stable cell line, luciferase reporter); settings: for Fold Induction, 13B3 Assay, 3.3 uM: 3.3 uM ligand; for Fold Induction, 13B3 Assay, 3.3 uM / Fold Induction, 13B3 Assay, 33 uM: RLU ligand treated / RLU DMSO treated cells; for 13B3 assay Rel Max FI: maximum fold induction at any concentration relative to that of GS-E ligand, CHO 13B3 cells; for Fold Induction, 13B3 Assay, 33 uM: 33 uM ligand; for fold induction at 3.3 µM: read-out: Fold Induction, 13B3 Assay, 3.3 uM; for fold induction at 33 µM: read-out: Fold Induction, 13B3 Assay, 33 uM
In short: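 CHO 13B3 clone stably expressing GAL4 DBD–CfEcR(DEF) and VP16AD–MmRXR(DE) with GAL4 RE–luciferase reporter; cells plated 24 h at 37 °C, then treated with ligands (DMSO stocks diluted 300-fold), 8 concentrations 33–0.01 μM.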

[3] = read-out: Z3 assay EC50, HEK-293 Z3 cells, β-galactosidase reporter, average of two wells
[4] = read-out: 13B3 EC50, CHO 13B3 stable cell line, luciferase reporter, 48 h, average of two wells

Row | Compound | Fold Induction, Z3 Assay, 3.3 uM ([1]; average of two wells) | Z3 assay Rel Max FI ([1]; HEK-293 Z3 cells) | EC50 [1, 3] | Fold Induction, 13B3 Assay, 3.3 uM ([2]; average of two wells) | 13B3 assay Rel Max FI [2] | EC50 [2, 4] | Fold Induction, Z3 Assay, 33 uM ([1]; average of two wells) | Fold Induction, 13B3 Assay, 33 uM ([2]; average of two wells) | EC50 [1] | fold induction at 3.3 µM [1] | fold induction at 33 µM [1] | EC50 [2] | fold induction at 3.3 µM [2] | fold induction at 33 µM [2]
1 | CCc1c(OC)cccc1C(=O)NN(C(=O)c1cc(OC)c(O)c(OC)c1)C(C)(C)C [RG-115116] | 276 | 0.960 | 3.31 µM | 2 | 1.172 | > 50 µM | – | – | – | – | – | – | – | –
2 | COc1cccc(C(=O)NN(C(=O)c2cc(C)cc(C)c2)C(C)(C)C)c1CF [RG-115160] | 3 | 0.21 | > 50 µM | 3 | 0 | > 50 µM | 157 | 3 | – | – | – | – | – | –
3 | Cc1c(C(=O)NN(C(=O)c2cc(F)cc(C(F)(F)F)c2)C(C)(C)C)ccc2c1OCCO2 [RG-115169] | 443 | 0.956 | 0.347 µM | 405 | 0.618 | 0.497 µM | – | – | – | – | – | – | – | –
4 | COc1cccc(C(=O)NN(C(=O)c2cc(C)cc(C)c2)C(C)(C)C)c1C[S+](C)[O-] (stereo not drawn) [RG-115172] | 1 | 0.32 | > 50 µM | 1 | 0 | > 50 µM | 216 | – | – | – | – | – | – | –
5 | CCc1c(OC)cccc1C(=O)NN(C(=O)c1cc(OC)c(OC(C)=O)c(OC)c1)C(C)(C)C [RG-115191] | 386 | 0.934 | 2.4 µM | 3 | 1.513 | > 50 µM | – | – | – | – | – | – | – | –
6 | COc1cc(C(=O)N(NC(=O)c2cccc(O)c2C)C(C)(C)C)cc(OC)c1C [RG-115220] | 298 | 0.591 | 0.871 µM | 5 | 0.125 | > 50 µM | – | 1143 | – | – | – | – | – | –
7 | COc1cccc(C(=O)NN(C(=O)c2cc(C)cc(C)c2)C(C)(C)C)c1COC(C)=O [RG-115225, 3,5-dimethyl-benzoic acid N-tert-butyl-N′-(2-acetoxymethyl-3-methoxy-benzoyl)-hydrazide] | – | 0.32 | – | – | 0.08 | – | – | – | > 50 µM | 3 | 571 | 0.58 µM | 3 | 8
8 | CCc1ccc(C(=O)NN(C(=O)c2cc(F)c(F)c(F)c2)C(C)(C)C)c(F)c1 [RG-115259] | 91 | 0.617 | 0.427 µM | 3513 | 0.702 | 2.7 µM | – | 2981 | – | – | – | – | – | –
9 | CCc1c(C(=O)NN(C(=O)c2cccc(C(F)(F)F)c2)C(C)(C)C)ccc2c1OCO2 [RG-115260] | – | – | – | – | – | – | 526 | 13 | – | – | – | – | – | –
10 | CCc1c(OC)cccc1C(=O)NN(C(=O)c1cc(C)cc(C)c1)C(C)(C)COC(C)=O [RG-115310] | 199 | 0.781 | 2.63 µM | 2 | 0.676 | > 50 µM | 960 | 3044 | – | – | – | – | – | –
11 | CCc1c(OC)cccc1C(=O)NN(C(=O)c1cccc(C#N)c1)C(C)(C)C [RG-115327] | 279 | 0.662 | 2.75 µM | – | – | – | 325 | 3785 | – | – | – | – | – | –
12 | CCc1c(OC)cccc1C(=O)NN(C(=O)c1cc(OC)c(OC)c(OC)c1)C(C)(C)C [RG-115329] | 259 | 0.892 | 2.57 µM | – | – | – | 430 | 5644 | – | – | – | – | – | –
13 | CCc1c(OC)cccc1C(=O)NN(C(=O)c1ccccc1[N+](=O)[O-])C(C)(C)C [RG-115330] | 633 | 0.860 | 0.186 µM | 1995 | 0.711 | 5.69 µM | 432 | 3577 | – | – | – | – | – | –
14 | Cc1c(C(=O)NN(C(=O)c2cccc(F)c2)C(C)(C)C)ccc2c1OCCO2 [RG-115350] | 499 | 0.935 | 0.309 µM | 450 | 0.711 | 0.795 µM | – | – | – | – | – | – | – | –
15 | COc1cccc(C(=O)NN(C(=O)c2cc(C)cc(C)c2)C(C)(C)C)c1CSC [RG-115358, 3-Methoxy-2-methylsulfanylmethyl-benzoic acid N′-tert-butyl-N′-(3,5-dimethyl-benzoyl)-hydrazide] | – | 0.48 | – | – | 0.20 | – | – | – | 9.45 µM | 33 | 769 | > 50 µM | 1 | 584
16 | COc1cccc(C(=O)NN(C(=O)c2cc(C)cc(C)c2)C(C)(C)C)c1CO [RG-115371, 3,5-dimethyl-benzoic acid N-tert-butyl-N′-(2-hydroxymethyl-3-methoxy-benzoyl)-hydrazide] | – | 0.76 | – | – | 1.44 | – | – | – | 3.02 µM | 249 | 1770 | > 50 µM | 1 | 1090
17 | COc1cccc(C(=O)NN(C(=O)c2cc(C)cc(C)c2)C(C)(C)C)c1CS(C)(=O)=O [RG-115408, 2-methanesulfonylmethyl-3-methoxy-benzoic acid N′-tert-butyl-N′-(3,5-dimethyl-benzoyl)-hydrazide] | – | 0.01 | – | – | 0 | – | – | – | > 50 µM | 1 | 3 | > 50 µM | 1 | –
18 | CCc1c(OC)cccc1C(=O)NN(C(=O)c1cc(C)cc(/C=N/NC(N)=O)c1)C(C)(C)C [RG-115429, semicarbazide of N-(3-formyl-5-methyl-benzoyl)-N-tert-butyl-N′-(2-ethyl-3-methoxy-benzoyl) hydrazide] | – | 0.880 | – | – | 1.065 | – | – | – | 9.57 µM | 3 | 1720 | 8.68 µM | 18 | 1840
19 | COc1cccc(C(=O)NN(C(=O)c2cc(C)cc(C)c2)C(C)(C)C)c1CCl [RG-115490, 3,5-dimethyl-benzoic acid N-tert-butyl-N′-(2-chloromethyl-3-methoxy-benzoyl)-hydrazide] | – | 0.44 | – | – | 1.01 | – | – | – | 6.35 µM | 123 | 814 | > 50 µM | 2 | 844
20 | COc1cccc(C(=O)NN(C(=O)c2cc(C)cc(C)c2)C(C)(C)C)c1CN(C)C [RG-115497, 3,5-dimethyl-benzoic acid N-tert-butyl-N′-(2-dimethylaminomethyl-3-methoxy-benzoyl)-hydrazide] | – | 0.07 | – | – | 0 | – | – | – | > 50 µM | 1 | 20 | > 50 µM | 1 | –
